Laboratory results as given in patent US20240279232A1, “USE OF SUBSTITUTED 5-(4-METHYL-6-PHENYL-4H-BENZO[F]IMIDAZO[1,5-A][1,4] DIAZEPIN-3-YL)-1,2,4-O[…] THE TREATMENT OF INFLAMMATORY CONDITIONS” (priority 2021, published 2024).

test system: RAW macrophages; assay: NO production (Griess assay), LPS/IFNγ-activated RAW264.7 macrophages; type: cell-based, mouse; details: 10 μM, 24 hours, 1 μM GABA, LPS/IFNγ

Row | SMILES | Inhibition of NO production (%) RAW macrophages 10 μM [%]
1 | C#Cc1ccc2c(c1)C(c1ccccc1F)=NCc1c(C(=O)O)ncn1-2 [GL-II-79] | 0 ± 3
2 | C#Cc1ccc2c(c1)C(c1ccccc1F)=NCc1c(C(=O)OCCCO)ncn1-2 [GL-II-80] | 5 ± 3
3 | C#Cc1ccc2c(c1)C(c1ccccc1F)=NC(C)C(=O)N2C (stereo not drawn) [GL-III-24] | 68 ± 8
4 | C#Cc1ccc2c(c1)C(c1ccccc1F)=NC(C)C(=O)N2C (stereo not drawn) [GL-III-25] | 38 ± 9
5 | C#Cc1ccc2c(c1)C(c1ccccn1)=N[C@H](C)C(=O)N2 [GL-III-27] | 1 ± 3
6 | CC1N=C(c2ccccc2F)c2cc(Br)ccc2-n2cnc(C=O)c21 (stereo not drawn) [GL-III-35] | 0 ± 4
7 | CC1N=C(c2ccccc2F)c2cc(Cl)ccc2NC1=O (stereo not drawn) [GL-III-52] | 2 ± 2
8 | CCOC(=O)c1ncn2c1[C@@H](C)N=C(c1ccccc1F)c1cc(Cl)ccc1-2 [GL-III-53] | 3 ± 2
9 | C#Cc1ccc2c(c1)C(c1ccccc1)=NCC(=O)N2 [GL-III-59] | 8 ± 1

test system: Mouse microglia; assay: NO production (Griess assay), LPS/IFNγ-activated mouse microglia; type: cell-based; details: 10 μM, 24 hours, 1 μM GABA, LPS/IFNγ

Row | SMILES | Inhibition of NO production (%) Mouse microglia 10 μM [%]
10 | C#Cc1ccc2c(c1)C(c1ccccc1F)=NCc1c(C(=O)O)ncn1-2 [GL-II-79] | 44 ± 6
11 | C#Cc1ccc2c(c1)C(c1ccccc1F)=NCc1c(C(=O)OCCCO)ncn1-2 [GL-II-80] | 38 ± 8
12 | C#Cc1ccc2c(c1)C(c1ccccc1F)=NC(C)C(=O)N2C (stereo not drawn) [GL-III-24] | 67 ± 12
13 | C#Cc1ccc2c(c1)C(c1ccccc1F)=NC(C)C(=O)N2C (stereo not drawn) [GL-III-25] | 25 ± 10
14 | C#Cc1ccc2c(c1)C(c1ccccn1)=N[C@H](C)C(=O)N2 [GL-III-27] | 29 ± 8
15 | CC1N=C(c2ccccc2F)c2cc(Br)ccc2-n2cnc(C=O)c21 (stereo not drawn) [GL-III-35] | 17 ± 7
16 | CC1N=C(c2ccccc2F)c2cc(Cl)ccc2NC1=O (stereo not drawn) [GL-III-52] | 57 ± 11
17 | CCOC(=O)c1ncn2c1[C@@H](C)N=C(c1ccccc1F)c1cc(Cl)ccc1-2 [GL-III-53] | 85 ± 14
18 | C#Cc1ccc2c(c1)C(c1ccccc1)=NCC(=O)N2 [GL-III-59] | 43 ± 7

test system: RAW macrophages; assay: Cell viability (CellTiter-Glo), RAW macrophages; type: cell-based, mouse; details: CellTiter-Glo

Row | SMILES | Cell viability (%) RAW macrophages 50 μM [%]
19 | C#Cc1ccc2c(c1)C(c1ccccc1F)=NCc1c(C(=O)O)ncn1-2 [GL-II-79] | 100 ± 3
20 | C#Cc1ccc2c(c1)C(c1ccccc1F)=NCc1c(C(=O)OCCCO)ncn1-2 [GL-II-80] | 100 ± 2
21 | C#Cc1ccc2c(c1)C(c1ccccc1F)=NC(C)C(=O)N2C (stereo not drawn) [GL-III-24] | 100 ± 12
22 | C#Cc1ccc2c(c1)C(c1ccccc1F)=NC(C)C(=O)N2C (stereo not drawn) [GL-III-25] | 100 ± 8
23 | C#Cc1ccc2c(c1)C(c1ccccn1)=N[C@H](C)C(=O)N2 [GL-III-27] | 100 ± 4
24 | CC1N=C(c2ccccc2F)c2cc(Br)ccc2-n2cnc(C=O)c21 (stereo not drawn) [GL-III-35] | 100 ± 2
25 | CC1N=C(c2ccccc2F)c2cc(Cl)ccc2NC1=O (stereo not drawn) [GL-III-52] | 97 ± 8
26 | CCOC(=O)c1ncn2c1[C@@H](C)N=C(c1ccccc1F)c1cc(Cl)ccc1-2 [GL-III-53] | 97 ± 7
27 | C#Cc1ccc2c(c1)C(c1ccccc1)=NCC(=O)N2 [GL-III-59] | 100 ± 3

test system: Mouse microglia; assay: Cell viability (CellTiter-Glo), mouse microglia; type: cell-based; details: 50 μM, CellTiter-Glo
Method: Next, a library of GABAAR ligands was investigated to identify compounds that reduce the production of NO as a marker of anti-inflammatory activity. […] NO was quantified with a Greiss assay. Cell viability was determined with CellTiter-Glo.
Nitric oxide production (Griess assay) and viability assay (CellTiter-Glo). 80 μL of mouse microglia culture (1×10^6 cells/mL) was plated into sterile 384 well plates representing non-activated wells. The remaining culture was activated with 50 ng/ml LPS (Invivogen, NC9836) and 150 U/mL IFNγ (R&D Systems, 485MI100) and distributed into the 384 well plates. […] Assay plates were incubated for approximately 24 hours (unless otherwise noted) at 37° C., centrifuged, and 40 μL of supernatant transferred to a new plate for analysis using the Griess Assay (Promega, Madison, WI). Absorbance at 530 nm was measured using a TECAN Infinite M1000 plate reader. The remaining 40 μL containing cells was analyzed for toxicity by the CellTiter-Glo Assay (Promega, Madison, WI). Luminescence was read using a TECAN Infinite M1000 plate reader.

Row | SMILES | Cell viability (%) Mouse microglia 50 μM [%]
28 | C#Cc1ccc2c(c1)C(c1ccccc1F)=NCc1c(C(=O)O)ncn1-2 [GL-II-79] | 84 ± 5
29 | C#Cc1ccc2c(c1)C(c1ccccc1F)=NCc1c(C(=O)OCCCO)ncn1-2 [GL-II-80] | 85 ± 1
30 | C#Cc1ccc2c(c1)C(c1ccccc1F)=NC(C)C(=O)N2C (stereo not drawn) [GL-III-24] | 98 ± 5
31 | C#Cc1ccc2c(c1)C(c1ccccc1F)=NC(C)C(=O)N2C (stereo not drawn) [GL-III-25] | 98 ± 4
32 | C#Cc1ccc2c(c1)C(c1ccccn1)=N[C@H](C)C(=O)N2 [GL-III-27] | 86 ± 8
33 | CC1N=C(c2ccccc2F)c2cc(Br)ccc2-n2cnc(C=O)c21 (stereo not drawn) [GL-III-35] | 100 ± 8
34 | CC1N=C(c2ccccc2F)c2cc(Cl)ccc2NC1=O (stereo not drawn) [GL-III-52] | 85 ± 8
35 | CCOC(=O)c1ncn2c1[C@@H](C)N=C(c1ccccc1F)c1cc(Cl)ccc1-2 [GL-III-53] | 72 ± 7
36 | C#Cc1ccc2c(c1)C(c1ccccc1)=NCC(=O)N2 [GL-III-59] | 96 ± 4

test system: HEK293; assay: Viability assay (CellTiter-Glo), HEK293; type: cell-based, human; details: 120 μM, CellTiter-Glo
Method: (§1) The screen identified several compounds that reduced NO in activated microglia and macrophages. The tested compounds included achiral and chiral imidazodiazepines and benzodiazepines. In general, microglia were more sensitive to compound treatment with more pronounced reduction of NO than macrophages. […] Cell viability assays with HEK293 (kidney) and HepG2 (liver) cells were conducted in a concentration dependent manner. A limited number of compounds, such as GL-III-63, GL-III-76A, and GL-III-77, were toxic at 120 μM.
(§2) Viability assay. Human liver hepatocellular carcinoma (HEPG2) and human embryonic kidney 293T (HEK293T) cell lines were purchased (ATCC) and cultured in 75 cm^2 flasks (CellStar). Cells were grown in DMEM/High Glucose (Hyclone, #SH3024301) media to which non-essential amino acids (Hyclone, #SH30238.01), 10 mM HEPES (Hyclone, #SH302237.01), 5×10^6 units of penicillin and streptomycin (Hyclone, #SV30010), and 10% of heat inactivated fetal bovine serum (Gibco, #10082147) were added. Cells were harvested using 0.05% Trypsin (Hyclone, #SH3023601), washed with PBS, and dispensed into sterile white, optical bottom 384-well plates (NUNC, #142762). After three hours, small molecule DMSO solutions were transferred with a Tecan Freedom EVO liquid handling system equipped with a 100 nL pin tool (V&P Scientific). The controls were 3-dibutylamino-1-(4-hexyl-phenyl)-propan-1-one (25 mM in DMSO, positive control) and DMSO (negative control). The cells were incubated for 48 hours followed by the addition of CellTiter-Glo™, a luminescence-based cell viability assay (Promega, Madison, WI). All luminescence readings were performed on a Tecan Infinite M1000 plate reader. The assay was carried out in quadruplet with two independent runs. The data were analyzed by nonlinear regression.

Row | SMILES | Cell viability (%) HEK293 120 μM [%]
37 | C#Cc1ccc2c(c1)C(c1ccccc1F)=NCc1c(C(=O)O)ncn1-2 [GL-II-79] | 91 ± 13
38 | C#Cc1ccc2c(c1)C(c1ccccc1F)=NCc1c(C(=O)OCCCO)ncn1-2 [GL-II-80] | 76 ± 8
39 | C#Cc1ccc2c(c1)C(c1ccccc1F)=NC(C)C(=O)N2C (stereo not drawn) [GL-III-24] | 78 ± 6
40 | C#Cc1ccc2c(c1)C(c1ccccc1F)=NC(C)C(=O)N2C (stereo not drawn) [GL-III-25] | 93 ± 4
41 | C#Cc1ccc2c(c1)C(c1ccccn1)=N[C@H](C)C(=O)N2 [GL-III-27] | 91 ± 2
42 | CC1N=C(c2ccccc2F)c2cc(Br)ccc2-n2cnc(C=O)c21 (stereo not drawn) [GL-III-35] | 79 ± 8
43 | CC1N=C(c2ccccc2F)c2cc(Cl)ccc2NC1=O (stereo not drawn) [GL-III-52] | 73 ± 8
44 | CCOC(=O)c1ncn2c1[C@@H](C)N=C(c1ccccc1F)c1cc(Cl)ccc1-2 [GL-III-53] | 47 ± 10
45 | C#Cc1ccc2c(c1)C(c1ccccc1)=NCC(=O)N2 [GL-III-59] | 100 ± 4

test system: HEPG2; assay: Viability assay (CellTiter-Glo), HEPG2; type: cell-based, human; details: 120 μM, CellTiter-Glo
Method: as §1, §2

Row | SMILES | Cell viability (%) HEPG2 120 μM [%]
46 | C#Cc1ccc2c(c1)C(c1ccccc1F)=NCc1c(C(=O)O)ncn1-2 [GL-II-79] | 100 ± 7
47 | C#Cc1ccc2c(c1)C(c1ccccc1F)=NCc1c(C(=O)OCCCO)ncn1-2 [GL-II-80] | 100 ± 9
48 | C#Cc1ccc2c(c1)C(c1ccccc1F)=NC(C)C(=O)N2C (stereo not drawn) [GL-III-24] | 91 ± 12
49 | C#Cc1ccc2c(c1)C(c1ccccc1F)=NC(C)C(=O)N2C (stereo not drawn) [GL-III-25] | 100 ± 5
50 | C#Cc1ccc2c(c1)C(c1ccccn1)=N[C@H](C)C(=O)N2 [GL-III-27] | 77 ± 7
51 | CC1N=C(c2ccccc2F)c2cc(Br)ccc2-n2cnc(C=O)c21 (stereo not drawn) [GL-III-35] | 98 ± 8
52 | CC1N=C(c2ccccc2F)c2cc(Cl)ccc2NC1=O (stereo not drawn) [GL-III-52] | 81 ± 9
53 | CCOC(=O)c1ncn2c1[C@@H](C)N=C(c1ccccc1F)c1cc(Cl)ccc1-2 [GL-III-53] | 94 ± 10
54 | C#Cc1ccc2c(c1)C(c1ccccc1)=NCC(=O)N2 [GL-III-59] | 100 ± 2
